{"source": "patent US8012980B2", "about": "“Isoquinolinone derivatives” (AstraZeneca AB, priority 2008, dated 2011)", "note": "Structures can show the parent of a compound that is named as a salt."}
{"molecular_target": "T1, human active recombinant p38 (p38α) (Homo sapiens, UniProt Q16539)", "T1 construct": "6His", "T1 sequence (Q16539 whole entry)": "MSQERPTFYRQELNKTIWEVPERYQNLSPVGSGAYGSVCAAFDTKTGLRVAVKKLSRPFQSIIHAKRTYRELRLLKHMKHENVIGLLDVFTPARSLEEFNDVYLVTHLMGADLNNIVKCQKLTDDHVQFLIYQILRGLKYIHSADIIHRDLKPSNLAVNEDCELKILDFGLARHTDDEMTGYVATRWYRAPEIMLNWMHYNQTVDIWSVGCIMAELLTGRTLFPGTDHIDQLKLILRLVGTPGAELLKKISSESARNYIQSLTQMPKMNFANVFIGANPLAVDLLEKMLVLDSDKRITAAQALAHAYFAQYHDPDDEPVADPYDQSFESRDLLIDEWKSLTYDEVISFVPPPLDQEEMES", "experiment": "p38 Alpha Enzyme Assay (AlphaScreen, biotinylated-ATF2 substrate)", "assay_type": "biochemical", "conditions": "means of replicate determinations; pre-incubated for 4 hours at 37° C.; SD of assay between 0.2 and 0.3 log units", "description": "(§1) The ability of the compounds of formula (I) to inhibit p38 kinase may be determined using the following biological assay:\n(§2) Enzyme assays were performed in polypropylene 96 well plates. The following solutions were added to each well; 10 μL of compound dilutions in assay buffer (20 mM HEPES pH 7.4, containing 20 mM magnesium acetate, 0.005% (w/v) Tween-20, 10 mM DTT) containing 1% (v/v) DMSO or assay buffer containing 1% (v/v) DMSO alone, 70 μL of assay buffer containing 36 nM substrate (biotinylated-ATF2) and 10 μL of an appropriate dilution of human active recombinant p38-6H is tagged. Depending on batch of p38, an appropriate dilution was typically a 5 nM solution to give a final enzyme concentration of 0.5 nM. At this stage, background control wells also received 50 μL of AlphaScreen quench buffer (10 mM HEPES pH 7.4 containing 100 mM EDTA, 0.2% (w/v) bovine serum albumin). The plate was covered, pre-incubated for 4 hours at 37° C. and the enzyme reaction initiated by addition of 10 μL 1 mM ATP. After incubation for a further 45 minutes at 37° C., the reaction was stopped by addition of 50 μL quench reagent and 50 μL of the quenched reaction mixture transferred to an opaque, white 96-well plate. Detection reagent, 25 μL of 10 mM HEPES pH 7.4 containing 100 mM EDTA, 0.2% (w/v) bovine serum albumin, 0.3 nM anti phosphoATF2 antibody and 25 μg/mL of AlphaScreen protein A acceptor and donor beads' (PerkinElmer Inc.), was added to all wells in a darkened room, the plate sealed and left in the dark for at least 5 hours before AlphaScreen readings were taken using a Perkin Elmer EnVision reader. Total, uninhibited activity was determined from assays performed in each assay plate. The mean control in the absence of p38 activity was subtracted from each well. Data were expressed as percent inhibition of total activity using equation 1. Percent Inhibition=100*(1−Test/Control) Eq.1 Where . . . Test=p38 kinase activity in the presence of compound Control=p38 kinase activity in the absence of compound.\n(§3) pIC50 is defined as the logarithm of the reciprocal of the concentration of compound required for 50% reduction in total p38 kinase activity.\n(§4) The standard deviation of the p38 enzyme inhibition assay is between 0.2 and 0.3 log units."}
{"smiles": "Cc1c(F)cc(C(=O)NC2CC2)cc1-c1ccc2c(=O)n(CC(C)(C)CO)cc(CN3CCC[C@H](N)C3)c2c1", "note": "[Example 25, 3-[4-{[(3S)-3-Aminopiperidin-1-yl]methyl}-2-(3-hydroxy-2,2-dimethylpropyl)-1-oxo-1,2-dihydroisoquinolin-6-yl]-N-cyclopropyl-5-fluoro-4-methylbenzamide]", "p38α inhibition Mean pIC50": 8.8}
{"molecular_target": "T1, human active recombinant p38 (p38α)", "experiment": "p38 Alpha Enzyme Assay (AlphaScreen, biotinylated-ATF2 substrate)", "assay_type": "biochemical", "conditions": "means of replicate determinations; pre-incubated for 4 hours at 37° C.; SD of assay between 0.2 and 0.3 log units; read-out: p38α inhibition Mean pIC50 (converted)", "description": "as §1, §2, §3, §4", "units": {"IC50": "nM"}}
{"smiles": "Cc1c(F)cc(C(=O)NC2CC2)cc1-c1ccc2c(=O)n(CC(C)(C)CO)cc(CN3CCNC[C@@H]3CO)c2c1", "note": "[Example 22, N-Cyclopropyl-3-fluoro-5-[2-(3-hydroxy-2,2-dimethylpropyl)-4-{[(2R)-2-(hydroxymethyl)piperazin-1-yl]methyl}-1-oxo-1,2-dihydroisoquinolin-6-yl]-4-methylbenzamide]", "IC50": 0.158}
{"smiles": "Cc1c(F)cc(C(=O)NC2CC2)cc1-c1ccc2c(=O)n(CC(C)(C)CO)cc(CN3CCCNCC3)c2c1", "note": "[Example 23, N-Cyclopropyl-3-[4-(1,4-diazepan-1-ylmethyl)-2-(3-hydroxy-2,2-dimethylpropyl)-1-oxo-1,2-dihydroisoquinolin-6-yl]-5-fluoro-4-methylbenzamide]", "IC50": 0.316}
{"smiles": "Cc1c(F)cc(C(=O)NC2CC2)cc1-c1ccc2c(=O)n(CC(C)(C)CO)cc(CN3CCN(C)CC3)c2c1", "note": "[Example 24, N-Cyclopropyl-3-fluoro-5-{2-(3-hydroxy-2,2-dimethylpropyl)-4-[(4-methylpiperazin-1-yl)methyl]-1-oxo-1,2-dihydroisoquinolin-6-yl}-4-methylbenzamide]", "IC50": 0.631}
{"smiles": "Cc1c(F)cc(C(=O)NC2CC2)cc1-c1ccc2c(=O)n(CC3(CO)CCC3)cc(CN3CCNCC3)c2c1", "note": "[Example 27, N-Cyclopropyl-3-fluoro-5-[2-{[1-(hydroxymethyl)cyclobutyl]methyl}-1-oxo-4-(piperazin-1-ylmethyl)-1,2-dihydroisoquinolin-6-yl]-4-methylbenzamide]", "IC50": 0.316}
{"smiles": "Cc1c(F)cc(C(=O)NC2CC2)cc1-c1ccc2c(=O)n(CC(C)(C)CO)cc(CN3CCNC[C@@H]3C)c2c1", "note": "[Example 28, N-Cyclopropyl-3-fluoro-5-[2-(3-hydroxy-2,2-dimethylpropyl)-4-{[(2S)-2-methylpiperazin-1-yl]methyl}-1-oxo-1,2-dihydroisoquinolin-6-yl]-4-methylbenzamide]", "IC50": 0.794}
{"smiles": "Cc1c(F)cc(C(=O)NC2CC2)cc1-c1ccc2c(=O)n(CC(C)(C)CO)cc(CN3CCN[C@@H](C)C3)c2c1", "note": "[Example 29, N-Cyclopropyl-3-fluoro-5-[2-(3-hydroxy-2,2-dimethylpropyl)-4-{[(3S)-3-methylpiperazin-1-yl]methyl}-1-oxo-1,2-dihydroisoquinolin-6-yl]-4-methylbenzamide hydrochloride]", "IC50": 0.794}
{"smiles": "Cc1c(F)cc(C(=O)NC2CC2)cc1-c1ccc2c(=O)n(CC(C)(C)CO)cc(CN3CCC[C@@H](N)C3)c2c1", "note": "[Example 30, 3-[4-{[(3R)-3-Aminopiperidin-1-yl]methyl}-2-(3-hydroxy-2,2-dimethylpropyl)-1-oxo-1,2-dihydroisoquinolin-6-yl]-N-cyclopropyl-5-fluoro-4-methylbenzamide]", "IC50": 0.126}
{"smiles": "Cc1c(F)cc(C(=O)NC2CC2)cc1-c1ccc2c(=O)n(CC(C)(C)CO)cc(CN3CCC(C)(N)CC3)c2c1", "note": "[Example 31, 3-{4-[(4-Amino-4-methylpiperidin-1-yl)methyl]-2-(3-hydroxy-2,2-dimethylpropyl)-1-oxo-1,2-dihydroisoquinolin-6-yl}-N-cyclopropyl-5-fluoro-4-methylbenzamide]", "IC50": 0.794}
{"smiles": "Cc1c(F)cc(C(=O)NC2CC2)cc1-c1ccc2c(=O)n(CC(C)(C)CO)cc(CN3CCN(CCCO)CC3)c2c1", "note": "[Example 32, N-Cyclopropyl-3-fluoro-5-[2-(3-hydroxy-2,2-dimethylpropyl)-4-{[4-(3-hydroxypropyl)piperazin-1-yl]methyl}-1-oxo-1,2-dihydroisoquinolin-6-yl]-4-methylbenzamide]", "IC50": 0.794}
{"smiles": "Cc1c(F)cc(C(=O)NC2CC2)cc1-c1ccc2c(=O)n(CC3(CO)CC3)cc(CN3CCNC[C@H]3C)c2c1", "note": "[Example 33, N-Cyclopropyl-3-fluoro-5-(2-{[1-(hydroxymethyl)cyclopropyl]methyl}-4-{[(2R)-2-methylpiperazin-1-yl]methyl}-1-oxo-1,2-dihydroisoquinolin-6-yl)-4-methylbenzamide]", "IC50": 0.158}
{"smiles": "Cc1c(F)cc(C(=O)NC2CC2)cc1-c1ccc2c(=O)n(CC3(CO)CC3)cc(CN3CCN[C@@H](C)C3)c2c1", "note": "[Example 34, N-Cyclopropyl-3-fluoro-5-(2-{[1-(hydroxymethyl)cyclopropyl]methyl}-4-{[(3S)-3-methylpiperazin-1-yl]methyl}-1-oxo-1,2-dihydroisoquinolin-6-yl)-4-methylbenzamide]", "IC50": 1}
{"smiles": "Cc1c(F)cc(C(=O)NC2CC2)cc1-c1ccc2c(=O)n(CC(CO)CO)cc(CN3CCN[C@@H](C)C3)c2c1", "note": "[Example 35, N-Cyclopropyl-3-fluoro-5-(2-[3-hydroxy-2-(hydroxymethyl)propyl]-4-{[(3S)-3-methylpiperazin-1-yl]methyl}-1-oxo-1,2-dihydroisoquinolin-6-yl)-4-methylbenzamide]", "IC50": 5.01}
{"smiles": "Cc1c(F)cc(C(=O)NC2CC2)cc1-c1ccc2c(=O)n(CC(C)(CO)CO)cc(CN3CCN[C@@H](C)C3)c2c1", "note": "[Example 36, N-Cyclopropyl-3-fluoro-5-(2-[3-hydroxy-2-(hydroxymethyl)-2-methylpropyl]-4-{[(3S)-3-methylpiperazin-1-yl]methyl}-1-oxo-1,2-dihydroisoquinolin-6-yl)-4-methylbenzamide]", "IC50": 3.16}
{"smiles": "Cc1c(F)cc(C(=O)NC2CC2)cc1-c1ccc2c(=O)n(CC(C)(C)CO)cc(C(C)N3CCC(C)(N)CC3)c2c1", "note": "(stereo not shown) [Example 41, 3-{4-[1-(4-Amino-4-methylpiperidin-1-yl)ethyl]-2-(3-hydroxy-2,2-dimethylpropyl)-1-oxo-1,2-dihydroisoquinolin-6-yl}-N-cyclopropyl-5-fluoro-4-methylbenzamide]", "IC50": 0.631}
{"smiles": "Cc1c(F)cc(C(=O)NC2CC2)cc1-c1ccc2c(=O)n(CC(C)(C)CO)cc(C(C)N3CCC[C@@H](N)C3)c2c1", "note": "(stereo partly drawn) [Example 42, 3-[4-{1-[(3R)-3-Aminopiperidin-1-yl]ethyl}-2-(3-hydroxy-2,2-dimethylpropyl)-1-oxo-1,2-dihydroisoquinolin-6-yl]-N-cyclopropyl-5-fluoro-4-methylbenzamide]", "IC50": 0.794}
{"smiles": "Cc1c(F)cc(C(=O)NC2CC2)cc1-c1ccc2c(=O)n(CC(C)(C)CO)cc(C(C)N3CCCNCC3)c2c1", "note": "(stereo not shown) [Example 43, N-Cyclopropyl-3-{4-[1-(1,4-diazepan-1-yl)ethyl]-2-(3-hydroxy-2,2-dimethylpropyl)-1-oxo-1,2-dihydroisoquinolin-6-yl}-5-fluoro-4-methylbenzamide]", "IC50": 0.501}
{"smiles": "Cc1c(F)cc(C(=O)NC2CC2)cc1-c1ccc2c(=O)n(CC(C)(C)CO)cc(C(C)N3CCN[C@@H](CO)C3)c2c1", "note": "(stereo partly drawn) [Example 44, N-Cyclopropyl-3-fluoro-5-[2-(3-hydroxy-2,2-dimethylpropyl)-4-{1-[(3R)-3-(hydroxymethyl)piperazin-1-yl]ethyl}-1-oxo-1,2-dihydroisoquinolin-6-yl]-4-methylbenzamide]", "IC50": 1.26}
{"smiles": "Cc1c(F)cc(C(=O)NC2CC2)cc1-c1ccc2c(=O)n(CC(C)(C)CO)cc(C(C)N3CCN[C@@H](CO)C3)c2c1", "note": "(stereo partly drawn) [Example 45, N-Cyclopropyl-3-fluoro-5-[2-(3-hydroxy-2,2-dimethylpropyl)-4-{1-[(3R)-3-(hydroxymethyl)piperazin-1-yl]ethyl}-1-oxo-1,2-dihydroisoquinolin-6-yl]-4-methylbenzamide]", "IC50": 0.126}
